Assay results published in the supplement of paper PMC10307832.

How the values were obtained:
Experiment in all cases: relative viability (nuclei count vs DMSO), 5 days (fraction); higher = more cells survive
KIN001-266 + Vorinostat = compound: CCN1CCC(CC1)N2C=C(N=N2)CNC3=CC4=C(C(=CN=C4C(=C3)Cl)C#N)NC5=CC(=C(C=C5)F)Cl [KIN001-266] + O=C(CCCCCCC(=O)Nc1ccccc1)NO [Vorinostat] (partner 1 µM)
Summary of the method: (§1)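 Cells from lung cancer lines were seeded into 1536-well plates and, one day later, dosed by pin tool. Treatments were either a single drug or a fixed dose of an anchor drug with five library-drug doses (not always all listed) in √10 steps. After 5 days, nuclei were stained in a one-step fixation (final 0.05% Triton X-100, 1% formaldehyde, 1 ug/ml Hoechst) and counted on 4× images, and relative viability is the treated-to-vehicle nuclei ratio, as the median of duplicate plates.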

KIN001-266 + Crizotinib = compound: CCN1CCC(CC1)N2C=C(N=N2)CNC3=CC4=C(C(=CN=C4C(=C3)Cl)C#N)NC5=CC(=C(C=C5)F)Cl [KIN001-266] + C[C@@H](Oc1cc(-c2cnn(C3CCNCC3)c2)cnc1N)c1c(Cl)ccc(F)c1Cl [Crizotinib] (partner 1 µM)
Summary of the method: as §1

KIN001-266 + AZD7762 = compound: CCN1CCC(CC1)N2C=C(N=N2)CNC3=CC4=C(C(=CN=C4C(=C3)Cl)C#N)NC5=CC(=C(C=C5)F)Cl [KIN001-266] + NC(=O)Nc1cc(-c2cccc(F)c2)sc1C(=O)N[C@H]1CCCNC1 [AZD7762] (partner 0.2 µM)
Summary of the method: as §1

KIN001-266 + Palbociclib = compound: CCN1CCC(CC1)N2C=C(N=N2)CNC3=CC4=C(C(=CN=C4C(=C3)Cl)C#N)NC5=CC(=C(C=C5)F)Cl [KIN001-266] + CC(=O)c1c(C)c2cnc(Nc3ccc(N4CCNCC4)cn3)nc2n(C2CCCC2)c1=O [Palbociclib] (partner 0.5 µM)
Summary of the method: as §1

Row | Cell Line | relative viability (KIN001-266 + Vorinostat; first compound 0.08 µM) | relative viability (KIN001-266 + Vorinostat; first compound 0.253 µM) | relative viability (KIN001-266 + Vorinostat; first compound 0.8 µM) | relative viability (KIN001-266 + Vorinostat; first compound 2.53 µM) | relative viability (KIN001-266 + Vorinostat; first compound 8 µM) | relative viability (KIN001-266 + Crizotinib; first compound 0.08 µM) | relative viability (KIN001-266 + Crizotinib; first compound 0.253 µM) | relative viability (KIN001-266 + Crizotinib; first compound 2.53 µM) | relative viability (KIN001-266 + Crizotinib; first compound 8 µM) | relative viability (KIN001-266 + AZD7762; first compound 0.08 µM) | relative viability (KIN001-266 + AZD7762; first compound 0.253 µM) | relative viability (KIN001-266 + AZD7762; first compound 0.8 µM) | relative viability (KIN001-266 + AZD7762; first compound 2.53 µM) | relative viability (KIN001-266 + AZD7762; first compound 8 µM) | relative viability (KIN001-266 + Palbociclib; first compound 0.08 µM) | relative viability (KIN001-266 + Palbociclib; first compound 0.253 µM) | relative viability (KIN001-266 + Palbociclib; first compound 0.8 µM) | relative viability (KIN001-266 + Palbociclib; first compound 2.53 µM) | relative viability (KIN001-266 + Palbociclib; first compound 8 µM) | relative viability (KIN001-266 + Crizotinib; first compound 0.8 µM)
1 | HCC-827 | 0.825 | 0.869 | 0.159 | 0.761 | 0.926 | 0.944 | 0.921 | 0.931 | 0.849 | 0.28 | 0.224 | 0.131 | 0.215 | 0.196 | 0.443 | 0.492 | 0.374 | 0.471 | 0.467 | 
2 | HOP-62 | 0.812 | 0.661 | 0.786 | 0.685 | 0.527 | 0.823 | 1.09 | 0.963 | 0.971 | 0.583 | 0.671 | 1.03 | 0.729 | 0.447 | 0.473 | 0.472 | 0.457 | 0.479 | 0.485 | 0.924
3 | LC-2-ad | 0.644 | 0.721 | 0.655 | 0.788 | 0.704 | 0.43 | 0.546 | 0.447 | 0.429 | 0.8 | 0.867 | 0.777 | 0.863 | 0.636 | 0.535 | 0.527 | 0.484 | 0.499 | 0.478 | 0.377
4 | LCLC-97TM1 | 0.867 | 0.799 | 0.627 |  | 0.614 | 0.327 | 0.289 | 0.21 | 0.24 | 0.339 |  | 0.281 |  | 0.212 | 0.201 | 0.233 | 0.216 |  | 0.235 | 0.242
5 | LCLC-103H | 0.82 | 0.84 | 0.762 | 0.843 | 0.685 | 1.05 | 1.06 | 1.02 | 0.927 | 0.814 | 0.843 | 0.82 | 0.791 | 0.73 | 0.453 | 0.492 | 0.466 | 0.456 | 0.433 | 1.01
6 | LK-2 | 0.419 | 0.395 | 0.417 | 0.531 | 0.524 | 0.229 |  |  | 0.239 | 0.505 | 0.292 | 0.19 | 0.143 | 0.219 | 0.794 | 0.691 | 0.797 | 0.589 | 0.67 | 0.219
7 | LOU-NH91 | 0.96 | 0.924 | 0.71 | 0.746 | 0.797 | 0.75 | 0.694 | 0.683 | 0.647 | 0.785 | 0.617 | 0.711 | 0.711 | 0.734 | 0.526 | 0.544 | 0.509 | 0.525 | 0.53 | 0.576
8 | LU99A | 0.484 | 0.591 | 0.467 | 0.459 | 0.539 | 0.662 | 0.519 | 0.55 | 0.522 | 0.367 | 0.384 | 0.299 | 0.257 | 0.272 | 0.441 | 0.413 | 0.358 | 0.373 | 0.364 | 0.515
9 | LXF-289 | 0.752 | 0.79 | 0.734 | 0.814 | 0.884 | 0.819 | 0.801 | 0.826 | 0.76 | 0.996 | 1.04 | 1.09 | 1.09 | 1.19 | 0.589 | 0.618 | 0.596 | 0.606 | 0.629 | 0.77
10 | NCI-H23 | 0.7 | 0.523 | 0.667 | 0.584 | 0.551 | 0.583 | 0.523 | 0.496 | 0.448 | 0.195 | 0.249 | 0.304 | 0.22 | 0.246 | 0.46 | 0.423 | 0.522 | 0.532 | 0.402 | 0.41
11 | NCI-H322M | 0.877 | 0.91 | 0.848 | 0.758 | 0.788 | 0.796 | 0.968 | 0.819 | 0.843 | 0.63 | 0.64 | 0.612 | 0.451 | 0.544 | 0.455 | 0.479 | 0.477 | 0.387 | 0.448 | 0.957
12 | NCI-H358 | 0.663 | 0.634 | 0.759 | 0.611 | 0.262 | 0.537 | 0.794 | 0.454 | 0.268 | 0.574 | 0.459 | 0.41 | 0.547 | 0.474 | 0.138 | 0.126 | 0.137 | 0.133 | 0.171 | 0.656
13 | NCI-H441 | 0.968 | 0.765 | 0.58 | 0.617 | 0.584 | 0.86 | 0.874 | 0.775 | 0.665 | 0.941 | 1.2 | 1.11 | 1.07 | 1.19 | 0.294 | 0.223 | 0.217 | 0.22 | 0.259 | 0.756
14 | NCI-H460 | 0.725 | 0.697 | 0.735 | 0.649 | 0.671 | 1.01 | 0.872 | 0.808 | 0.67 | 0.543 | 0.679 | 0.681 | 0.554 | 0.524 | 0.175 | 0.161 | 0.263 | 0.176 | 0.153 | 1.12
15 | NCI-H647 | 0.562 | 0.631 | 0.921 | 0.761 | 0.508 | 1.1 | 1.1 | 1.15 | 0.825 | 0.432 | 0.366 | 0.568 | 0.431 | 0.434 | 0.432 | 0.399 | 0.428 | 0.479 | 0.351 | 1.05
